Where no end group is shown, it is not given here.

A short description of data set [1]: Stability of polypeptides in plasma against proteolysis. In kind it is in vitro ADME. The settings on record: incubation at 37°C in reconstituted normal human plasma with thromboplastin and calcium chloride, pH 7.8 (Figure 3). The procedure: The peptides of this invention were evaluated for in vitro plasma stability against proteolysis.
600 µg of peptide was mixed with 250 µl of reconstituted normal human plasma, 250 µl of thromboplastin, 600 µg of calcium chloride and 50 mM NaHPO4 buffer ph 7.8 to a final volume of 900 µl.
The mixture was incubated at 37°C and 100 µl aliquots were removed at designated time intervals. 20 µl of 10% trichloroacetic acid was added to individual aliquot and centrifuged at 12 X K for 10 minutes. The supernatant was injected on a C18 analytical column and chromatographed by standard elution procedure (i.e. at 60% 0.1% TFA/H2O to 0.1 TFA in CH3CN).

In a further data set the test system is rats. In words: Antithrombotic activity in the arteriovenous shunt model. In kind it is in vivo, rat. The conditions noted are these: dose which causes a prolongation of the time until occlusion of the shunt by 15 min, 5 min after intravenous administration. The procedure: The rat anaesthetized with urethane is fixed in supine position on a temperature-controlled heating plate. The right carotid artery and the left jugular vein are catheterized with short polyethylene catheters (Portex, PE 50). The catheters are filled with physiological saline solution and clamped. The two ends of the catheters are connected with a 2-cm glass capillary (internal diameter 1.0 mm) acting as a thrombogenic surface, 5 min after intravenous administration of the test substance or its solvent (control) the clamps occluding the arteriovenous shunt are opened. The blood flowing through the shunt leads to a rapid rise in temperature of the glass capillary from room temperature to body temperature. The temperature of the capillary serves as an indicator for the patency of the shunt. The temperature is measured by means of a NiCrNi-thermo-couple.
Antithrombotic effect of P79 compared to recombinant hirudin in the arteriovenous shunt model in rats 5 min. after intravenous administration (n - number of animals used. Results are shown in Table II below. TABLE II

For the next data set, the target named is T1, bovine α-thrombin (Bos taurus, UniProt P00735).
T1 construct: the enzyme (human or bovine α-thrombin 0.4 nM)
In words: Amidolytic (fluorogenic) assay of thrombin activity, hydrolysis of Tosyl-Gly-Pro-Arg-AMC. In kind it is biochemical. The settings on record: mean of three determinations ± SEM, ni: not inhibited.

The next data set has as its target T2, human α-thrombin (Homo sapiens, UniProt P00734).
T2 construct: the enzyme (human or bovine α-thrombin 0.4 nM)
The description is as above. In kind it is biochemical. The conditions noted are these: mean of three determinations ± SEM, ni: not inhibited. The method, then: Thrombin-catalyzed hydrolysis of Tos-Gly-Pro-Arg-pNA was monitored at 405 nm on a Varian Cary 2000 double beam spectrophotometer using substrate concentrations of 2.5, 3.5, 5 and 10 µM in a final volume of 1mL. The hydrolytic reactions were performed at 25°C in 0.1 M Tris-HCl buffer, pH 7.8, containing 0.1 M NaCl and 0.1% PEG 6000. The reactions were initiated by addition of the substrate dissolved in 0.1 M Tris-HCl buffer, pH 7.8 to a preincubated solution of enzyme (0.4 or 0.04 nM) and variable concentrations of inhibitor dissolved in the same buffer. Initial velocities were recorded and Ki values were determined graphically by weighted linear regression of Dixon plots in the case of competitive inhibition, or by the method of Baici (Baici, 1981) for hyperbolic inhibition. Fluorogenic assays were conducted using the same conditions and instrument as above operating in the fluorescence mode in the Ratio (λex=383 nm, λem=455 nm). Fluorescence intensities were calibrated with 7-amino-4-methyl coumarin solution of known concentration. The specificity of the synthetic peptides of the present invention for human α-thrombin may also be determined by comparing their relative inhibitory activities towards both human α-thrombin and bovine α-thrombin and trypsin by comparing K1 values obtained in the amidolytic assay of thrombin activity.

Description for bovine α-thrombin: The hydrolytic reactions were performed at 25°C in 0.1 M Tris-HCl buffer, pH 7.8, containing 0.1 M NaCl and 0.1% PEG 6000. The reactions were initiated by addition of the substrate dissolved in 0.1 M Tris-HCl buffer, pH 7.8 to a preincubated solution of enzyme (0.4 or 0.04 nM) and variable concentrations of inhibitor dissolved in the same buffer. […] Fluorescence intensities were calibrated with 7-amino-4-methyl coumarin solution of known concentration.

Turning to “[D-Phe^45,Arg^47,ψ(COCH2)CH2CH2CO^47]hirudin^45-65 [P79]”, the proteolysis entry in data set [1] was “minimal or no proteolysis”. For the same substance, the ED15 in the data set on rats amounted to 0.42 mg/kg.
Take TPKPQSHNDGD [P51, hirudin^45-55]: the Ki (usually the dissociation constant of the complex between target and ligand, obtained from inhibition or displacement) at bovine α-thrombin is 720 ± 130 nM; on human α-thrombin, 110 ± 3 nM.
